Data set [1] in a line: Photoreactivity assessment (photo DSC enthalpy of polymerization). Format: physicochemical. Particulars: for experimental ΔH as % of the calculated ΔH: 3% photoacid. An excerpt: In this example, the photoreactivity of various combinations of SIL-MIX alone or SIL-MIX with 3,9-diethyl-3,9-bis(allyloxymethyl)-1,5,7,11-tetraoxaspiro[5.5]undecane (DEBAOM-1,5,7,11-TOSU) 1; 3,9-bis(3-trimethylsilylpropyl)-1,5,7,11-tetraoxaspiro[5.5]undecane (BTMSP-1,5,7,11-TOSU) 2; 3,9-bis(allyloxymethyl)-2,4,8,10-tetraoxaspiro[5.5]undecane (BAOM-2,4,8,10-TOSU) 3; 3,9-bis(2-trimethylsilylethyl)-[…] (BTMSE-2,4,8,10-TOSU) 4; 3,3-diethyl-11,12-epoxy-1,5,7,16-tetraoxadispiro[5.2.5.2]hexadecane (DECHE-1,5,7,11-TOSU) 5; and 3,9-diethyl-3,9-bis(3-trimethylsilylpropyloxymethyl)-1,5,7,11-tetraoxaspiro[5.5]-undecane (DEBTMSPOM-1,5,7,11-TOSU) 6 was investigated. The photoreactivity assessments (n=1) were made using an EXFO Novacure light curing unit interfaced with a Perkin-Elmer Diamond DSC. The experimental conditions were as follows: 25° C.; N2 atmosphere; 400-500 nm light; 3 mm quartz light guides; output: 500 mW/cm measured 15 mm from sample surface. The sample weights were 15-18 mg. Standard A1 pans were used. An empty pan was placed in the reference position. Irradiation time was for 10 minutes following a 1 minute equilibration. After the initial run, the sample was re-irradiated for an additional 10 minutes. This second curve was subtracted from the initial exotherm curve to zero out artifacts due to beginning and ending of irradiation, and to compensate for the heat capacity differences between the sample pan and empty reference pan. Integrations were from time t=1.1 (lamp shutter opened) min to 11.1 min (lamp shutter closed).
In this example, reaction mixtures containing 0 or 20 mol % of TOSU monomers 1, 2, 3, 4, and 5 in SIL-MIX were formulated with 4.1 wt % photoinitiator system (3 wt % PI; 1 wt % CQ; 0.1 wt % ED). Formulated mixtures were heated for 5 minutes on an oil bath at about 60° C. and stirred magnetically to aid dissolution of the photoinitiator system and inventive monomer. Formulations were prepared and stored away from ambient light. Mixtures were tested for photoreactivity the same day as prepared.
The effect of doubling the photoinitiator (PI) content from 3 wt % to 6 wt % was also determined for selected mixtures. As in Example 7(a) above, reaction mixtures (about 2 g) were formulated with 4.1 wt % photoinitiator system (3 wt % PI; 1 wt % CQ; 0.1 wt % ED) except where noted. Formulated mixtures were heated for 5 minutes on an oil bath @ 60° C. and stirred magnetically to dissolve the photoinitiator system and 6 (DEBTMSPOM-1,5,7,11-TOSU) when included. Formulations were prepared and stored away from ambient light and tested the same day as prepared.

Data set [2] can be described thus: Oxaspirocyclic ring opening via 13C-NMR. In kind it is physicochemical. Particulars: 20 min visible light irradiation with PI system. The procedure:
NMR Studies: NMR spectra were acquired using a Bruker Advance Ultrashield FT-NMR spectrometer. A reaction mixture consisting of 6 (DEBTMSPOM-1,5,7,11-TOSU) and the PI system was heated to 55-60° C. to liquefy and then allowed to cool to room temperature. A 300 mg sample was transferred to an 8 mm I.D.×8 mm H cylindrical glass mold and irradiated for 20 min (3 mm; 500 mW/cm^2) using a 3M XL 2500 lamp. A small amount was transferred to an NMR tube, taken up in CDCl3 and the ^13C-NMR spectrum was acquired and compared to the pre-irradiation spectrum. The residual irradiated material was stored in the dark for 24 hr, resampled, and the NMR spectrum acquired and compared to the pre- and post-irradiation spectra.

The nature of data set [3]: Oxirane ring-opening (oxirane conversion) via FTIR. Format: physicochemical. The following applies: thin film, 10 min irradiation. The procedure: In this example, the oxirane ring-opening of monomers 1 (DEBAOM-1,5,7,11-TOSU) or 6 (DEBTMSPOM-1,5,7,11-TOSU) was investigated using FTIR. All FTIR spectra were acquired using a Perkin-Elmer BX II FTIR spectrophotometer. The identification of the location of the oxirane absorption band in the IR spectrum of Siloranes was achieved by methanolysis. A sample was dissolved in CH2Cl2 and exposed to CH30H in the presence of a catalytic amount of zinc tetrafluoroborate hydrate overnight. The mixture was evaporated onto a salt plate. An FTIR spectrum was acquired and compared to pre-exposure spectrum. There was a significant decrease in the oxirane absorption region at 882-886 cm^−1. This band was selected as the absorption to monitor for following the oxirane ring-opening reaction.
Analytical samples contained siloranes I, II, or SIL-MIX with and without 50 mol % of monomer 1 (DEBAOM-1,5,7,11-TOSU) or 6 (DEBTMSPOM-1,5,7,11-TOSU). A thin film was brushed onto a salt plate. Irradiation (10 minutes at 23 to 25° C. and R. H.=40-45%) was provided by a 3M XL2500 curing light positioned 1-cm above the sample surface. The light intensity was measured at 360 mW/cm^2 on the sample surface. The oxirane band absorption and an internal reference band absorption were assessed before and after irradiation. Oxirane conversion (alpha) was calculated according to equation (1) by Pan et al., Polym Int 2000, 49, 74. [formula] where subscripts 0 and t represent pre-irradiation and post-irradiation respectively.

The structures appear in SMILES notation.

The values that follow come from patent US20070072954A1, “Novel tetraoxaspiroalkanes and methods of use with organosilicon monomers in polyerizable compositions” (Curators of the University of Missouri, priority 2005, published 2007).

`CCC1(COCCC[Si](C)(C)C)COC2(OC1)OCC(CC)(COCCC[Si](C)(C)C)CO2` (stereo not shown) [Monomer 6, 3,9-diethyl-3,9-bis(3-trimethylsilylpropyloxymethyl)-1,5,7,11-tetraoxaspiro[5.5]undecane] came in with a melting point of 44.27 °C. Moreover, in data set [1] (3 wt % PI, 10 mol % in SIL-MIX), the ΔHexp is -124 J/g. Further, the ΔHexp in data set [1] (3 wt % PI, 25 mol % in SIL-MIX) is -86 J/g. Besides, the ΔHcalc in data set [1] (3 wt % PI, calculated for inert diluent instead of TOSU at 10 mol %) was -174 J/g. Also, the ΔHcalc in data set [1] (3 wt % PI, calculated for inert diluent instead of TOSU at 25 mol %) was -145 J/g. Also, the ΔHexp in data set [1] (6 wt % PI, 10 mol % in SIL-MIX) is -127 J/g. The ΔHexp in data set [1] (6 wt % PI, 25 mol % in SIL-MIX) is -87 J/g. Further, the ΔHcalc in data set [1] (6 wt % PI, calculated for inert diluent instead of TOSU at 10 mol %) was -166 J/g. The ΔHcalc in data set [1] (6 wt % PI, calculated for inert diluent instead of TOSU at 25 mol %) was -139 J/g. For the same molecule, in data set [1] (10% TOSU mix in SIL-MIX), the “experimental ΔH as % of the calculated ΔH” value was 71%. Also, the “experimental ΔH as % of the calculated ΔH” value in data set [1] (25% TOSU mix in SIL-MIX) is 59%. In data set [2] (0 hour dark cure), the “changes in 13C-NMR spectrum (oxaspirocyclic ring opening)” value is “No significant changes”. For the same molecule, the “changes in 13C-NMR spectrum (oxaspirocyclic ring opening)” value in data set [2] (24 hour dark cure) is listed as “consistent with oxaspirocyclic ring opening to form oligomeric carbonate species”. Further, the “Oxirane Conversion” value in data set [3] (comonomer 50 mol % in PH-SIL (I)) stood at 22%. In data set [3] (comonomer 50 mol % in SIL-MIX), the “Oxirane Conversion” value is 22%. Further, the “Oxirane Conversion” value in data set [3] (comonomer 50 mol % in TET-SIL (II)) turned out to be 3%.

Broadly, the melting point is the temperature of the solid-liquid transition.
